Data reported in PubChem BioAssay AID2823 (Broad Institute, 2010).
Calls of active or inactive are those of the source. How the calls were made is not given here.

Target: RanGTP-importin-beta complex (human Ran / KPNB1)
Assay: disruptors of RanGTP/KPNB1 binding – biochemical, FRET, CFP/YFP, cell-free homogeneous, confirmation (AID 2823)
Details: CFP-Ran/YFP-importin-beta FRET ratio

Compound	IC50
CCN(CC)S(=O)(=O)c1cc(C(=O)Nc2ccccc2[N+](=O)[O-])ccc1Cl	> 50 µM (inactive)
COc1cc(/C=N/NC(=O)c2cc(C)oc2C)ccc1O	> 50 µM (inactive)
CC(C)(C)Nc1nc(SCC(=O)Nc2ccccc2)nc(N2CCOCC2)n1	> 50 µM (inactive)
Cn1c(=O)cc(N2CCCCC2)[nH]c1=O	> 50 µM (inactive)
O=c1[nH]c2cc(Br)cnc2nc1/C=C(\O)c1ccc(F)cc1	> 50 µM (inactive)
CCCc1cc(=O)oc2c(CN3CCN(C)CC3)c(O)c(Cl)cc12	28.4 µM
CCn1c(=O)cc(N2CCC3(CC2)OCCO3)[nH]c1=O	> 50 µM (inactive)
COc1ccc(CCNC(=O)c2cc3c(=O)n4cccc(C)c4nc3n(CCCN3CCOCC3)c2=N)cc1	4.87 µM
Cc1ccc(-n2c(O)c(/C=N/N3CCCCCC3)c(=O)[nH]c2=O)cc1C	> 50 µM (inactive)
CSc1ncccc1C(=O)OCC(=O)c1cc2ccccc2o1	> 50 µM (inactive)
CCN(CC(=O)Nc1cccc(S(=O)(=O)N2CCCCC2)c1)Cc1ccccc1	> 50 µM (inactive)
CC(O)CNc1nc2ccccc2n1CC(=O)NC12CC3CC(CC(C3)C1)C2 (stereo not given)	> 50 µM (inactive)
Cc1cc(C(=O)COC(=O)c2nc3nccc(C)n3n2)c(C)n1CC1CCCO1 (stereo not given)	> 50 µM (inactive)
CN1CCN(c2cc(=O)n(-c3ccc(Cl)cc3)c(=O)[nH]2)CC1	> 50 µM (inactive)
C=CCn1c(O)c(C(C)=NCCc2ccccc2)c(=O)[nH]c1=O	> 50 µM (inactive)
CCOC(=O)c1c(NC(=O)Cc2ccccc2)sc2c1CCN(CC)C2	> 50 µM (inactive)
CCN1C(=O)/C(=C2/Sc3ccccc3N2CCCS(=O)(=O)O)SC1=S	15.2 µM
Cn1c(SCc2ccccc2F)nnc1-c1ccccn1	> 50 µM (inactive)
Cc1ccc(Nc2cc(C)nn2-c2nc(C)cc(C)n2)cc1	> 50 µM (inactive)
CCOC(=O)CC(=O)CSc1nc2c(cc1C#N)CCC2	29.2 µM
O=C(c1cc(COc2ccc(F)cc2Cl)on1)N1CCCC(c2ccccc2)C1 (stereo not given)	> 50 µM (inactive)
CC1(C)CC(=O)CC(=Nc2ccc3[nH]c(=O)[nH]c3c2)C1	> 50 µM (inactive)
CN1CCCN(C(=O)Cc2c(Cl)cccc2Cl)c2nc3ccccc3nc21	36.5 µM
COc1ccc(OC)c(S(=O)(=O)n2ccnc2C)c1	> 50 µM (inactive)
CC1=Nc2ccccc2/C1=C\c1sc(Nc2ccc(C)cc2)nc1O	> 50 µM (inactive)

Compound	IC50
Cc1ccc(Nc2nc(N)nc(CC#N)n2)cc1	> 50 µM (inactive)
COC(=O)c1ccc2c(C(C)(C)O)c(C(C)(C)O)[nH]c2c1	> 50 µM (inactive)
CC(=O)N1c2ccc(S(=O)(=O)N3CCC(C(=O)Nc4cccc(Cl)c4)CC3)cc2CC1C (stereo not given)	> 50 µM (inactive)
CCCOC(=O)CSC1=C(C#N)C(c2ccccc2OC)C(C#N)C(=O)N1 (stereo not given)	> 50 µM (inactive)
COc1cc(SC)ccc1C(=O)Nc1nc(C)cs1	> 50 µM (inactive)
CCOC(=O)c1c(NC(=O)CSc2nnc3c(n2)[nH]c2ccccc23)sc2c1CCN(C)C2	> 50 µM (inactive)
CCCCNC(=O)c1c(N)n(Cc2ccc3c(c2)OCO3)c2nc3ccccc3nc12	4.95 µM
CCCCn1c(NC(=O)c2ccc(Br)o2)c(S(=O)(=O)c2ccccc2)c2nc3ccccc3nc21	4.83 µM
CCN(CC)S(=O)(=O)c1ccc(NC(=O)c2ccc(Sc3nncn3C)c([N+](=O)[O-])c2)cc1	> 50 µM (inactive)
CSc1nsc(/C=C/Nc2ccc(C)cc2)c1C#N	> 50 µM (inactive)
CCOc1ccc(OCc2ccc(C(=O)N(CC)CC)cc2)cc1	> 50 µM (inactive)
Cc1cccn2c(=O)c(/C=C(\C#N)C(N)=O)c(Oc3ccccc3)nc12	1.96 µM
COc1ccc(OC(=O)C2CC(=O)N(c3ccc(C)cc3)C2)cc1 (stereo not given)	> 50 µM (inactive)
CCN1CCN(c2cc(=O)n(Cc3ccc(F)cc3)c(=O)[nH]2)CC1	> 50 µM (inactive)
O=C(/C=C/c1ccccc1[N+](=O)[O-])N1CCN(c2ccc(F)cc2)CC1	> 50 µM (inactive)
CCCc1noc(-c2cccc([N+](=O)[O-])c2)n1	> 50 µM (inactive)
CC(C)OC(=O)c1c(N)n(CC2CCCO2)c2nc3ccccc3nc12 (stereo not given)	18 µM
CC1(C)CC(=O)C=C(NNC(=O)C2CCCCC2)C1	> 50 µM (inactive)
O=c1cc(CN2CCN(S(=O)(=O)c3ccc4c(c3)OCCO4)CC2)c2ccc(O)cc2o1	10.9 µM
CC1(C)CC(=O)C=C(Nc2ccccc2O)C1	> 50 µM (inactive)
COc1ccc(NC(=O)COC(C)=O)cc1Cl	> 50 µM (inactive)
O=C(c1cc2c(=O)n3ccccc3nc2s1)N1CCN(Cc2ccccc2)CC1	> 50 µM (inactive)
Cc1cccc(Oc2nc(-c3cccc([N+](=O)[O-])c3)nc3ccccc23)c1C	> 50 µM (inactive)
CC1(C)CC(=O)NC=C(c2ccccc2)C1	> 50 µM (inactive)
CC(=O)N1CN2CN(C(C)=O)CC(C(=O)c3ccccc3)(C2)C1	> 50 µM (inactive)

Compound	IC50
COC(=O)c1ccc2nc(NC(=O)C(C)(C)C)sc2c1	> 50 µM (inactive)
COCCn1c(=NC(=O)c2ccc3c(c2)OCO3)c(C#N)cc2c(=O)n3cccc(C)c3nc21	> 50 µM (inactive)
Cc1nn(C)c(Oc2ccc(Cl)cc2)c1C(=O)O	> 50 µM (inactive)
Cc1ccc(NC(=S)NCCN2CCOCC2)cc1	> 50 µM (inactive)
CCN1C(=O)C2(C(C#N)=C(N)Oc3n[nH]c(C(C)C)c32)c2ccccc21 (stereo not given)	> 50 µM (inactive)
COCCCn1c(=N)c(C(=O)NCc2ccc3c(c2)OCO3)cc2c(=O)n3ccccc3nc21	28.4 µM
CCOC(=O)C1=C(C)NC2=C(C(=O)C(C(=O)OCC)C(c3cccc(OC)c3)C2)C1c1ccccn1 (stereo not given)	22.2 µM
CCCc1cc(=O)oc2c(CN3CCCC3)c(O)c(Cl)cc12	27.1 µM
CSc1nc(-c2ccc(N(C)C)cc2)c(C#N)c(=O)n1C	> 50 µM (inactive)
Cc1cccc(C)c1N1CCN(S(=O)(=O)c2ccc(F)cc2)CC1	> 50 µM (inactive)
COc1ccc(/C=C2\SC(=S)N(CC(=O)OCC(=O)Nc3ccc(C)cc3Cl)C2=O)cc1	> 50 µM (inactive)
CCCN1CCC2(CC1)C(C#N)=C(N)Oc1c2sc2nc(C)cc(C)c12	> 50 µM (inactive)
CC(C)(C)CN1CCC(n2nccc2NC(=O)c2ccccc2Cl)CC1	> 50 µM (inactive)
COc1ccc(-c2c(C)c3ccc(O)cc3oc2=O)cc1OC	37.2 µM
Oc1cccc(Nc2c3ccccc3nc3ccccc23)c1	> 50 µM (inactive)
Cc1noc(C)c1C(=O)Nc1sc2c(c1C(N)=O)CCC2	> 50 µM (inactive)
COc1ccc(-n2cnc3cc(NCc4ccco4)ccc32)cc1	> 50 µM (inactive)
COCCNC(=O)c1c(NC(=O)c2ccco2)n(Cc2ccccc2)c2nc3ccccc3nc12	1.91 µM
CCc1ccc(C2C(C#N)=C(N)SC(N)=C2C#N)cc1	> 50 µM (inactive)
CC(=O)N(c1ccc(Cl)cc1)c1c[nH]c2ccccc12	> 50 µM (inactive)
C/C(N)=C(/C#N)C(=O)COc1ncnc2ccccc12	> 50 µM (inactive)
Cc1onc(-c2ccccc2)c1C(=O)Nc1cccc2nsnc12	33.3 µM
Cc1cccc(C2=NN(c3ccc(Br)cc3)[C@@H](C(=O)N3CCOC3=O)[C@@H]2c2ccc(F)cc2)c1	33.6 µM
Cc1sc2c(c1C)C(=O)NC(c1ccccc1F)N2 (stereo not given)	> 50 µM (inactive)
CN(Cc1cnc2nc(N)nc(N)c2n1)c1ccc(C(=O)N[C@@H](CCC(=O)O)C(=O)O)cc1	> 50 µM (inactive)

Compound	IC50
COCCNC(=O)C(C)OC(=O)c1cc2occc2n1C (stereo not given)	> 50 µM (inactive)
COc1cc([C@@H]2[C@H]3CN(C)CC=C3C(C#N)=C(N)C2(C#N)C#N)cc2c1OCO2	21 µM
CCOC(=O)CSc1nnc(CSc2nc3sc4c(c3c(=O)[nH]2)CCCC4)n1-c1ccccc1	> 50 µM (inactive)
CC(C)Sc1nnc(CNC(=O)C23CC4CC(CC(C4)C2)C3)n1C1CCCCC1	> 50 µM (inactive)
Cc1ccc(C(=O)Nc2ncc(Cc3ccc(F)cc3)s2)o1	> 50 µM (inactive)
O=c1[nH]c(=O)n(-c2cccc3ccccc23)c(O)c1/C=N/N1CCCCCC1	> 50 µM (inactive)
O=C(Nc1ccccc1-c1ccccc1)c1cccs1	> 50 µM (inactive)
Cc1c(OCC(=O)NCc2ccncc2)ccc2c3c(c(=O)oc12)CCC3	> 50 µM (inactive)
COc1ccc(N2C(=O)N3[C@H](c4ccc(Br)cc4)[C@@H]4C(=O)N(C(C)(C)C)C(=O)[C@@H]4[C@]3(Cc3ccccc3)C2=O)cc1	> 50 µM (inactive)
O=C(O)c1ccccc1P(=O)(c1ccccc1)c1ccccc1	> 50 µM (inactive)
O=C(Nc1cnc2ccccc2c1)c1cccc(-n2cnnn2)c1	> 50 µM (inactive)
Cc1ccc(C(=O)NNc2c3ccccc3nc3ccccc23)cc1	> 50 µM (inactive)
O=C(c1ccccc1)c1cc2ccc(O)cc2oc1=O	13 µM
COCCNc1cc(C)nc2cc(-c3ccc(C)cc3)nn12	5.2 µM
CCCOC(=O)CSC1=C(C#N)C(c2ccccc2OCC)C(C#N)C(=O)N1 (stereo not given)	> 50 µM (inactive)
Cc1c(N=Cc2c(O)n(Cc3ccco3)c(=O)c3ccccc23)c(=O)n(-c2ccccc2)n1C	> 50 µM (inactive)
CCOC(=O)c1c(C)oc2cc(Br)c(OCC(N)=O)cc12	> 50 µM (inactive)
Cc1c(OC(=O)N(C)C)ccc2c1O/C(=C\c1ccco1)C2=O	12.5 µM
CCOC(=O)/C(=N\Nc1ccc(C(C)=O)cc1)c1csc(Nc2ccccc2)n1	> 50 µM (inactive)
C=CCn1c(SCC(=O)N2CCCCC2)nnc1-c1ccncc1	> 50 µM (inactive)
CCn1c(=O)cc(N2CCOCC2)[nH]c1=O	> 50 µM (inactive)
COC(=O)Cc1c(C)c2ccc(O)c(CNCc3ccc(OC)c(OC)c3)c2oc1=O	6.13 µM
Cc1ccc2cc(C#N)c(N3CCCN(C(=S)NCCCN(C)C)CC3)nc2c1	22.6 µM
COc1cc2c(cc1OC)CN(Cc1cc(=O)oc3c(C)c(C)ccc13)CC2	> 50 µM (inactive)
CCN1C2=C(C(=O)CCC2)C(c2ccc(O)c(Br)c2)C2=C1CCCC2=O	7.86 µM
